Test results reported in PMC10670708, “A New Synthetic Curcuminoid Displays Antitumor Activities in Metastasized Melanoma” (Cells, 2023).
pIC50: −log10 of the molar value. Several values for one entry are separate records, joined by “and”; a condition that tells them apart may be missing. Identical values can stand only once. Entries after “also recorded” stand apart in the source; their conditions may differ.

Experiments:
[1] = system: AML12 murine hepatocytes; assay: Cytotoxicity assay (resazurin), AML12; type: cell-based; conditions: Mus musculus, 48 h
Experimental: (§1) 3T3 murine fibroblasts (ATCC # CRL-1658), B16F10 murine melanoma cells (ATCC # CRL-6475) and RAW 264.7 murine macrophages (ATCC # TIB-71) were cultured in Dulbecco’s modified eagle’s high-glucose medium (Sigma Aldrich, Darmstadt, Germany) supplemented with 10% fetal bovine serum (FBS), 1% streptomycin–penicillin (Gibco, Darmstadt, Germany) and 1% L-glutamine (Gibco, Germany). AML12 murine hepatocytes (ATCC # CRL-2254) were cultivated in Dulbecco’s modified eagle’s F-12 Ham media supplemented as described above plus 10 µg/mL insulin, 5.5 µg/mL transferrin, 5 ng/mL selenium (all from Thermo Fisher Scientific, Braunschweig, Germany) and 40 ng/mL dexamethasone (Sigma Aldrich). All cells were maintained in a humidified incubator at 37 °C under 5% CO2. Cells were passaged when they reached semi-confluency. For detachment, cells were thoroughly rinsed with Dulbecco’s phosphate-buffered saline (PBS) without calcium and magnesium (Sigma Aldrich) and enzymatically treated using TrypLE™ Express (1×) (Gibco, Germany). FBS-containing medium was added to stop enzymatic activity.
(§2) A total of 1000 cells were seeded per well in 100 µL medium (for details, see above) using 96-well plates (Greiner Bio-On, Frickenhausen, Germany). After 24 h, curcumin, garcinol (both from Sigma Aldrich), MePip-SF5 and isogarcinol (synthesized as described previously) were added to the wells at concentrations ranging from 0.5 to 64 µM (6 wells per concentration step) and incubated at […] for 48 h. For the preparation of the compounds, drugs were dissolved in DMSO at a concentration of 40 mM for stock solutions and freshly diluted with PBS to a working stock of 4 mM on the day of the experiment.
(§3) After the incubation, resazurin (Sigma Aldrich) was dissolved in fully supplemented media and added to a final concentration of 25 µg/mL per well. After incubation for 3 h, the absorbance of resorufin (7-hydroxy-3H-phenoxazin-3-one), the enzymatic product of resazurin, in the wells was measured on an Infinite M200Pro spectrofluorometer (TECAN, Männedorf, Switzerland) at an excitation of 570 nm. Based on the determined dose–response curves, IC50 concentrations were calculated by Prism 10 (GraphPad Software Version 10.1.0, La Jolla, CA, USA) using nonlinear regression analysis after conversion of concentrations to logarithmic scale.

[2] = system: C57BL/6 mice; assay: Safety laboratory and biometric parameters in treated metastasis-bearing mice; type: in vivo; conditions: for tolerability at the applied doses: MePip-SF5 60 mg/kg, isogarcinol 15 mg/kg i.p. ×3; for safety laboratory parameters (LDH, creatinine, urea, ALT, AST, GLDH, γ-GT, Bilirubin, ALP): serum, day 16
Experimental: (§4) At 8, 11 and 14 days after melanoma cell injection, groups of mice (n = 10) received an intraperitoneal injection of isogarcinol (15 mg/kg) or MePip-SF5 (60 mg/kg) of 200 µL, while non-treated control mice received equal volumes of PBS. At day 16, mice were sacrificed, and organs (lungs, liver, kidneys and spleen) and blood were sampled for further analysis.

[3] = system: 3T3 murine fibroblasts; assay: Cytotoxicity assay (resazurin), 3T3; type: cell-based; conditions: 3T3 fibroblasts; for pIC50: Mus musculus, Fibroblast, 48 h, resazurin
Experimental: as §1, §2, §3

[4] = system: M2-polarized bone-marrow-derived macrophages; assay: Phenotype modulation of M2-polarized BMDM (RT-qPCR); type: cell-based, mice (C57BL/6); conditions: M2-polarized primary macrophages; for Ccl3 expression: half of RAW IC50
Experimental: Bone marrow was extracted from 8-weeks-old C57BL/6 mice (Charles River, Erkrat, Germany) and matured into primary macrophages in the presence of macrophage colony-stimulating factor (M-CSF). Briefly, mice were sacrificed by cervical dislocation, and the femurs and tibias were isolated under sterile conditions and rinsed with cold PBS supplemented with 2% heat-inactivated FBS and 1% penicillin/streptomycin using a 21G needle and a 10 mL syringe (Braun, Kronberg, Germany). Cell suspensions were passed through a 70 µm cell strainer (Milteny, Bergisch Gladbach, Germany). The remaining red blood cells were lysed with red cell lysis buffer (eBioscience, San Diego, CA, USA) and the resulting bone marrow cells resuspended in fully supplemented Iscove’s modified Dulbecco’s medium (Gibco) plus 25 ng/mL M-CSF (from a 1 mg/mL M-CSF stock solution in PBS, M-CSF, ImmunoTools, Friesoythe, Germany). Five million cells were cultured on bacterial culture plates (Sigma-Aldrich, Germany) in a total volume of 10 mL. After 4 days, half of the medium was substituted by fresh medium to yield primary macrophages after an additional 4 days.
For M2-type polarization, BMDM medium was exchanged for fresh medium containing 20 ng/mL IL-4 and 20 ng/mL IL-13 (ImmunoTools, Germany), and cells were incubated for 24 h. […] IC50 concentrations were calculated as described above for the cytotoxicity assays.
(§5) Total RNA was extracted via phenol extraction from cells using RNA-Solv® reagent (VWR International GmbH, Hessen, Germany) as described in the manual of the manufacturer. RNA was purified with the Monarch® Total RNA Miniprep Kit (New England BioLabs GmbH, Frankfurt am Main, Germany) following the manual of the manufacturer. For RNA extraction from lung tissue, the accessory lobe of the right lung was mechanically homogenized in 1 mL RNA-Solv® reagent using the Tissue Lyser II (Qiagen, Venlo, The Netherlands). A 100 µL amount of the suspension was mixed with 900 µL RNA-Solv® reagent, and total RNA extraction was performed using the Monarch® Total RNA Miniprep Kit as described in the manual of the manufacturer.
(§6) RNA content of the extracted solution was measured optically using the Infinite® 200 PRO spectrofluorometer (TECAN, Switzerland), and 25 ng RNA per reaction was used in the following analysis.
(§7) Transcript levels of β-Actin were used to normalize data and to control for RNA integrity. Samples were amplified with the Luna® Universal One-Step RT-qPCR Kit (New England BioLabs GmbH, Frankfurt am Main) and analyzed using a Step One Plus sequence amplification system from LifeTechnologies (Darmstadt, Germany). For normalization, results were expressed as the ratio of the copy numbers of the target gene divided by the number of copies of the housekeeping gene (β-Actin) within individual PCR runs.

[5] = system: healthy C57BL/6 mice; assay: In vivo toxicity and dose finding; conditions: for maximum tolerated single dose without signs of acute toxicity: intraperitoneal, twice weekly, escalating doses, n = 2, weight loss and abnormal behavior
Experimental: Groups of 2 mice (C57BL/6) were challenged with increasing doses of MePip-SF5 or isogarcinol. Stock solutions of drugs (40 mM in DMSO, corresponding to 24 mg/mL for isogarcinol and 21 mg/mL for MePip-SF5) were freshly dissolved in PBS, yielding a total injection volume of 100 µL. Prepared drug solutions were intraperitoneally injected twice weekly (Monday and Friday) over 4 weeks. Drug doses were doubled each week, starting with 15 mg/kg body weight. Physical appearance and body weight were closely monitored. Toxic dose was defined as body weight loss of ≥10% in one week, abnormal behavior or when mice lost ≥5% of their body weight in two consecutive weeks.

[6] = system: B16F10 pulmonary melanoma metastases; assay: In vivo antitumor therapy, pulmonary metastasis of B16F10 melanoma; design: species or system mice (C57BL/6); conditions: for pulmonary tumor load / antitumor effect: MePip-SF5 60 mg/kg, isogarcinol 15 mg/kg i.p. days 8, 11, 14, day 16, vs vehicle
Experimental: Eight-weeks-old female C57BL/6 mice (body weight ~20 g) were purchased from Charles River (Sulzfeld, Germany) and kept under 12 h light–dark cycles at 25 °C and 40–60% humidity with humane care. Mice had access to regular chow and water ad libitum. Pulmonary metastases were generated by tail vein injection. A total of 500,000 B16F10 cells were resuspended in sterile 100 µL PBS (cell viability > 90%) and injected into the tail vein of the mice while animals were immobilized in a mouse restrainer (G&P Kunststofftechnik, Kassel, Germany). At 8, 11 and 14 days after melanoma cell injection, groups of mice (n = 10) received an intraperitoneal injection of isogarcinol (15 mg/kg) or MePip-SF5 (60 mg/kg) of 200 µL, while non-treated control mice received equal volumes of PBS. At day 16, mice were sacrificed, and organs (lungs, liver, kidneys and spleen) and blood were sampled for further analysis. Tumor nodules of the left and right lobes of the lungs were macroscopically counted. Pictures of the lungs were taken with a Stemi 2000-C binocular (Carl Zeiss, Jena, Germany), and a mm scale was pictured to create a mm grid in ImageJ software (latest version 1.54f (National Institute of Health, Bethesda, MD, USA). In addition to surface lesion counts, tumors were categorized by their size into categories of <1 mm and <2 mm. Afterwards, both lobes were formalin fixed, paraffin embedded and sectioned (5 µm) to assess intrapulmonary tumor burden. Sections were stained with ready-to-use hematoxylin and eosin staining solution (Carl Roth, Karlsruhe, Germany) for 5 min at room temperature and washed in distilled water and 0.5% acetic acid. Per mouse, lungs were cut into 4–5 parts and then microtome thin-sectioned ([…]). Then, 4 lung sections were randomly selected and analyzed. Sections were tile-scanned with a Leica microscope (DMi8). Pictures were binarized and the percentage of healthy vs. tumor lung tissue measured by ImageJ software using an adjusted threshold setting. Data are expressed as means ± SD per mouse (n = 10 treated group; and n = 11 per control group).

[7] = system: RAW 264.7 murine macrophages; assay: Cytotoxicity assay (resazurin), RAW 264.7; type: cell-based; conditions: Mus musculus, RAW264.7, 48 h
Experimental: as §1, §2, §3

[8] = system: B16F10 murine melanoma cells; assay: Cytotoxicity assay (resazurin), B16F10; type: cell-based; conditions: for pIC50: Mus musculus, B16-F10, 48 h, resazurin
Experimental: as §1, §2, §3

[9] = system: gemcitabine-resistant pancreatic cancer patients; design: method as in PMID 20859741; conditions: cited from earlier work
[10] = system: metastatic lung tissue transcripts; assay: RT-qPCR of transcripts in lung tissue of treated mice; type: in vivo, mice (C57BL/6); conditions: MePip-SF5 60 mg/kg, vs controls
Experimental: as §5, §6, §7, §4

[11] = system: various solid tumor cell lines (including colon cancer and glioblastoma cells); conditions: exceeded the activities of previous curcuminoids; cited from earlier work

SMILES | pIC50 [1] | tolerability at the applied doses [2] | safety laboratory parameters (LDH, creatinine, urea, ALT, AST, GLDH, γ-GT, Bilirubin, ALP) [2] | pIC50 [3] | Ccl3 expression [4] | maximum tolerated single dose without signs of acute toxicity [5] | pulmonary tumor load / antitumor effect [6] | pIC50 [7] | pIC50 [8] | also measured
CC(C)=CC[C@H]1C[C@@]23C[C@@H](CC=C(C)C)C(C)(C)[C@@](CC=C(C)C)(C(=O)C(C(=O)c4ccc(O)c(O)c4)=C2OC1(C)C)C3=O [isogarcinol] | 5.37 | well tolerated | remained normal | 5.49 | increased | 15 mg/kg | ineffective; also recorded: failed to show activity | 5.64 | 5.68 | stronger activity than original substance garcinol [8]: 40% and ~ 40%
COc1cc(/C=C/C(=O)CC(=O)/C=C/c2ccc(O)c(OC)c2)ccc1O [curcumin] | 4.97 | – | – | 5.17 | – | – | – | 5.26 | 4.86 | 1-year survival rate ([9]; 95% confidence interval 4.4–41.4%): 19%; median survival ([9]; 95% confidence interval 109–223 days): 161 days
C=C(C)[C@@H](CC=C(C)C)C[C@@]12C[C@@H](CC=C(C)C)C(C)(C)[C@@](CC=C(C)C)(C(=O)C(C(=O)c3ccc(O)c(O)c3)=C1O)C2=O [garcinol, reference compound] | 5.00 | – | – | 5.06 | not | – | – | 5.42 | 5.51 | –
CN1C/C(=C\c2ccc(S(F)(F)(F)(F)F)cc2)C(=O)/C(=C/c2ccc(S(F)(F)(F)(F)F)cc2)C1 [MePip-SF5, (E)-1-methyl-3,5-bis(4-pentafluorothiobenzylidene)-4-piperidone] | 5.64 | well tolerated | remained normal | 6.15 | upregulated | 60 mg/kg | significantly (p < 0.05) lower; also recorded: robust antitumor effect | 5.89 | 5.55 | Bax expression in lungs [10]: remained unchanged; Bcl2 expression in lungs [10]: remained unchanged; Hif1a expression in lungs [10]: did not affect; Il6 expression in lungs [10]: did not affect; Ki67 expression in lungs [10]: trend of reduced expression; Bub1 expression in lungs ([10]; 60 mg/kg): significantly (p < 0.05) reduced; also recorded: significantly downregulated; Ccl3 expression in lungs ([10]; 60 mg/kg): significantly (p < 0.05) reduced; Tnfa expression in lungs ([10]; 60 mg/kg): significantly (p < 0.05) reduced; times more active than parent drug curcumin ([3]; ratio of IC50): 10 ×; Inos expression [4]: no effect; Ccl2 expression ([4]; effective dose of 0.6 µM): increased; could be dosed more highly than isogarcinol ([5]; ratio of tolerated doses): 8 ×; antiproliferative activity [11]: high antiproliferative activity; proportion of healthy lung tissue (morphometric, thin sections) ([6]; 60 mg/kg i.p. days 8, 11, 14, vs PBS-treated controls): significantly higher; numbers of macroscopic tumor nodules of size ≤ 1 mm in the lungs ([6]; i.p. days 8, 11, 14, sacrifice day 16, vs controls and isogarcinol-treated mice): significantly (p < 0.05) lower
